Several values for one entry are separate records, joined by “and”; a condition that tells them apart may be missing. Identical values can stand only once. Residues, ends and D or L forms follow the SMILES beside them. *: point of attachment. βNA = c1ccc2cc(N*)ccc2c1
Columns and labels:
Type in all cases: cell-based
[1] = tested on: Pseudomonas aeruginosa (ATCC #10145); test: Growth curves (OD600)
Protocol: To generate growth curves, overnight cultures of Pseudomonas aeruginosa (ATCC #10145) from Plate Count Agar were lifted and resuspended in dH2O and adjusted to OD600=0.01 with sterile Mueller Hinton Broth (MHB). This culture was distributed into wells of an uncovered 96-well plate with the indicated biocides. The OD600 was then measured initially and then every 30′ for 16 hours at 37° C. with constant double orbital shaking. Due to the opacity of the samples dosed with some test compounds, the curves were generated by background subtracting from wells containing sterile MHB and then subtracted from their initial (t=0) measurement.

[2] = tested on: Pseudomonas aeruginosa (ATCC #10145); test: NPN uptake assay (membrane permeability); conditions: 1% w/v solutions
Protocol: The NPN uptake assay was performed roughly as previously described. See Helander I. M., Mattila-Sandholm T., Fluorometric assessment of gram-negative bacterial permeabilization, J. Appl. Microbiol. […] Next, the cells were centrifuged (10,000 g, 5 minutes) washed twice with assay buffer (5 mM HEPES-KOH, 5 mM glucose, pH 7.2) and resuspended in assay buffer to OD600=1. 100 microliters of washed cells in assay buffer was then mixed with 100 microliters of assay buffer containing 20 μM NPN in a 96-well optical bottom black plate (Thermo). Two microliters of the test substances were then added, briefly mixed, and then placed in a plate reader to monitor fluorescence (excitation 350 nm, emission 420 nm) at one minute intervals for 10 minutes. Controls containing no cells or water-only were included in the assay. NPN uptake was calculated using the formula below at each time point and averaged over all time-points and three replicates.

[3] = tested on: bacterial consortium: Alcaligenes faecalis (ATCC #25094), Enterobacter aerogenes (ATCC #13048), Escherichia coli (ATCC #11229), Pseudomonas aeruginosa (ATCC …); test: Bacterial challenge testing (standard); conditions: paint challenge testing (Table A9)
Protocol: Bacterial and fungal challenge testing was performed following Troy's standard challenge test procedure SOP MI-07. […] Where indicated, additional bacterial organisms were added to the inoculum such that each organism in the inoculum provided equal CFU. […] Fungal consortia were prepared on Malt Agar slants and diluted to 10^6 spores/mL using a hemocytometer to count before use. Each mixture was prepared shortly before each inoculation. Inoculations were performed by adding 0.5 mL to 50 g of the indicated test sample, giving either ˜10^6 CFU/g of bacteria or ˜10^4 spores/g of fungi per challenge. Viability readings were performed at the indicated intervals following each challenge by applying a small amount of the test sample onto PCA (for bacteria) or Malt Agar (for fungus). Bacterial plates were then incubated at 32° C. for 3-5 days, and Malt Agar plates were incubated for 1 week at 28° C. before reading. Viability plates were evaluated with a semi-quantitative scale. This scale estimates the approximate CFU/g by visual assessment of the colony density along the streak lines. Readings are recorded as the average of two duplicate semi-quantitative readings from “0” to “4.” Samples were mixed before every viability reading and after every inoculation.
(§1) Challenge test scoring was done by the weighted sum of squares for each of the twelve data points collected for each test sample. The weighting was done proportional to the streak day, with day 1 weighted at 10%, day 2 weighted at 20%, and day 3 weighted at 70%. The sum of all 12 values is then taken and divided by the score of the unprotected sample to achieve the total growth score. The reported “weighted performance” score is 1 minus the growth score.

Bacillus sp. Troy JZ14 = test: Minimum inhibitory concentration testing (microbroth dilution) and synergy index; conditions: 96 well microbroth dilution, MHB, 24 hours of incubation
Protocol: (§2) MICs were determined via microbroth dilution using the following specific test parameters:
(§3) Necessary organism dilutions via OD600 were calculated based on OD600 of 1.0 being equivalent to 8×10^8 CFU/mL. Biocide dilutions were performed in 2-fold increments for each assay.
(§4) Synergy index (SI) scores were calculated according to the mass action equation below: […]
(§5) S.I.[MIC[A]in-blend/MIC[A]alone]+[MIC[B]in-blend/MIC[B]alone]
(§6) Combinations of ingredients were determined to be synergistic (S.I.<0.5), additive (S.I.>0.5 to 1), indifferent (S.I.>1 to <2) or antagonistic (S.I.>2), as defined by EUCAST guidelines. See European Committee for Antimicrobial Susceptibility Testing (EUCAST) of the European Society of Clinical Microbiology and Infectious Diseases (ESCMID). EUCAST Definitive Document E.Def 1.2, May 2000: Terminology relating to methods for the determination of susceptibility of bacteria to antimicrobial agents, Clin. Microbiol. Infect. Off Publ. Eur. Soc. Clin. Microbiol. Infect. Dis. 6, 503-508 (2000); Helander I. M., Mattila-Sandholm T., Fluorometric assessment of gram-negative bacterial permeabilization, J. Appl. Microbiol. 88:213-219 (2000).

[4] = tested on: Burkholderia sp. Troy JZ2; test: as above; conditions: 96 well microbroth dilution, MHB, 24 hours of incubation
Protocol: as §2, §3, §4, §5, §6

[5] = tested on: Pseudomonas aeruginosa (ATCC #10145); test: Kill curve; conditions: 0.2%
Protocol: Overnight cultures of Pseudomonas aeruginosa (ATCC #10145) growing in Tryptic Soy Broth were diluted to OD600=0.7 in Mueller Hinton Broth containing the indicated level of test compound. Samples containing IPBC were dosed with Polyphase PW40 (40% IPBC). Samples containing ZnO were dosed from a 50% ZnO dispersion (“1678-54”). Time points were collected by adding 1 mL of the sample into 9 mL of Dey-Engley Neutralizing Broth and performing a serial dilution in 1× Butterfield's Phosphate Buffer. Counts were obtained from pour plates in Tryptic Soy Agar after overnight incubation at 35° C.

[6] = tested on: bacterial consortium: Alcaligenes faecalis, Enterobacter aerogenes, Escherichia coli, Pseudomonas aeruginosa, Staphylococcus aureus, Microbacterium …; test: Bacterial challenge testing (industrial strength); conditions: paint; 2.5% w/w (10,000 ppm); 7 days after challenge
From the text: Where industrial strength inoculations are indicated, bacterial challenge testing organisms were Alcaligenes faecalis (ATCC #25094), Enterobacter aerogenes (ATCC #13048), Escherichia coli (ATCC #11229), Pseudomonas aeruginosa (ATCC #10145), Staphylococcus aureus (ATCC #6538), Microbacterium paraoxydans (Troy Isolate), Burkholderia cenocepacia (Troy Isolate), Citrobacter werkmanii (Troy Isolate), and Acinetobacter sp. (Troy Isolate). All bacteria were blended from separate overnight cultures grown in Tryptic Soy Broth (TSB) and mixed at equal CFU via OD600 measurements, then diluted to OD600=7 (˜10^9 CFU/mL) to create the final bacterial consortium. Each mixture was prepared shortly before each inoculation. Inoculations were performed by adding […] to 50 g of the indicated test sample to give ˜10^7 CFU/g per inoculation. Viability readings were performed at the indicated intervals following each challenge by applying a small amount of the test sample onto PCA. Plates were then incubated at 32° C. for 3-5 days before being evaluated with a semi-quantitative scale. This scale estimates the approximate CFU/g by visual assessment of the colony density along the streak lines. Readings are recorded as the average of two duplicate semi-quantitative readings from “0” to “4.” Samples were mixed before every viability reading and after every inoculation.
as §1

[7] = tested on: Pseudomonas sp. Troy JZ103; test: Minimum inhibitory concentration testing (microbroth dilution) and synergy index; conditions: 96 well microbroth dilution, MHB, 24 hours of incubation
Protocol: as §2
(§7) Biocide dilutions were performed in 2-fold increments for each assay.
as §4, §5
as §6, with “6, 503-508 (2000); Helander I. M., Mattila-Sandholm T., Fluorometric assessment of gram-negative bacterial permeabilization, J. Appl.” left out, “Microbiol.” for “Microbiol. 88:213-219 (2000).”

[8] = tested on: P. aeruginosa ATCC #10145; test: as above; conditions: 96 well microbroth dilution, MHB, 24 hours of incubation
Protocol: as §2, §7, §4, §5
as §6, with “6, 503-508 (2000); Helander I. M., Mattila-Sandholm T., Fluorometric assessment of gram-negative bacterial permeabilization, J. Appl.” left out, “Microbiol.” for “Microbiol. 88:213-219 (2000).”

E. coli ATCC #11229 = test: as above; conditions: 96 well microbroth dilution, MHB, 24 hours of incubation
Protocol: as §2, §7, §4, §5
as §6, with “6, 503-508 (2000); Helander I. M., Mattila-Sandholm T., Fluorometric assessment of gram-negative bacterial permeabilization, J. Appl.” left out, “Microbiol.” for “Microbiol. 88:213-219 (2000).”

E. aerogenes ATCC #13048 = test: as above; conditions: 96 well microbroth dilution, MHB, 24 hours of incubation
Protocol: as §2, §7, §4, §5
as §6, with “6, 503-508 (2000); Helander I. M., Mattila-Sandholm T., Fluorometric assessment of gram-negative bacterial permeabilization, J. Appl.” left out, “Microbiol.” for “Microbiol. 88:213-219 (2000).”

S. aureus ATCC #6538 = test: as above; conditions: 96 well microbroth dilution, MHB, 24 hours of incubation
Protocol: as §2, §7, §4, §5
as §6, with “6, 503-508 (2000); Helander I. M., Mattila-Sandholm T., Fluorometric assessment of gram-negative bacterial permeabilization, J. Appl.” left out, “Microbiol.” for “Microbiol. 88:213-219 (2000).”

[9] = tested on: Microbacterium sp. Troy JZ13; test: as above; conditions: 96 well microbroth dilution, MHB, 24 hours of incubation
Protocol: as §2, §7, §4, §5
as §6, with “6, 503-508 (2000); Helander I. M., Mattila-Sandholm T., Fluorometric assessment of gram-negative bacterial permeabilization, J. Appl.” left out, “Microbiol.” for “Microbiol. 88:213-219 (2000).”

SMILES: [Cl-].[Cl-].[Mg+2] [MgCl2]
- Pseudomonas growth ([1]; control, without PAβN (FIG. 1C)): no Pseudomonas inhibition

SMILES: N=C(N)NCCC[C@H](NC(=O)[C@@H](N)Cc1ccccc1)C(=O)Nc1ccc2ccccc2c1 [PAβN, phenylalanine-arginine beta-napthylamide] (H-Phe-Arg-βNA)
- Impact on Pseudomonas growth ([1]; 0.125-0.5 mM PAβN alone, 16 hours at 37° C.): minimal impact

SMILES: CC(C)C(=O)OCC(C)(C)C(O)C(C)C (centres unmarked) [Texanol]
- Membrane disruption potential against Pseudomonas (NPN assay) [2]: highest membrane disruption potential

SMILES: CC(=O)OCC(COC(C)=O)OC(C)=O [Triacetin]
- Improvement in the bacterial resistance of paint containing IPBC/ZnO [3]: some improvement

SMILES: [O]=[Zn] [ZnO, zinc oxide]
- MIC (Bacillus sp. Troy JZ14): 3212 ppm
- MIC [4]: 2000 ppm
- Kill curve CFU/mL ([5]; 0 hrs): 5.40E+06 CFU/mL and 7.00E+06 CFU/mL
- Kill curve CFU/mL ([5]; 2 hrs): 7.10E+06 CFU/mL and 7.30E+06 CFU/mL
- Kill curve CFU/mL ([5]; 24 hrs): 1.33E+10 CFU/mL and 1.45E+10 CFU/mL
- Kill curve CFU/mL ([5]; 48 hrs): 4.90E+09 CFU/mL and 3.80E+09 CFU/mL
- Kill of the inoculum [6]: complete kill
- MIC [7]: 3400 ppm
- MIC [8]: ≥2400 ppm
- MIC (E. coli ATCC #11229): 2400 ppm
- MIC (E. aerogenes ATCC #13048): 2400 ppm
- MIC (S. aureus ATCC #6538): 250 ppm
- MIC [9]: 3206 ppm
